{"source": "patent US20030237103A1", "about": "“Methods and compositions for pharmacological and toxicological evaluation of test agents” (priority 2002, published 2003)", "test_system": "Panel, parental and outbred (CD-IGS) rat strains", "assay": "Clinical chemistry endpoints of gentamicin-treated vs. vehicle rats", "settings": "for T-test value CREAT / T-test value GGT / T-test value GLOB / T-test value GLU / T-test value K / T-test value NA / T-test value PHOS / T-test value TBIL / T-test value TP / T-test value TRIG / T-test value ALB / T-test value ALP / T-test value ALT / T-test value ANION GAP / T-test value AST / T-test value BICARB / T-test value BUN / T-test value CA / T-test value CHOL: 240 mg/Kg gentamicin vs. vehicle", "excerpt": "Percent increase is defined as[(mean drug—mean vehicle control)/mean vehicle control×100] for each strain tested. The number of animals tested in each group is noted below the strain designation in parenthesis as #drug treated animals per #vehicle treated animals.\nWe sought to maximize the range of genetic susceptibility to the adverse drug effects across the strains.", "key": {"[1]": {"settings": "Panel (all 6 hybrid strains together)"}, "[2]": {"settings": "Parental Group (all 4 parents combined)"}}, "data": [{"substance": "gentamicin", "values": [{"measurement": "T-test value CREAT", "setting": "LEWxF344 rats", "value": 0.014}, {"measurement": "T-test value GGT", "setting": "LEWxF344 rats", "value": 0.351}, {"measurement": "T-test value GLOB", "setting": "LEWxF344 rats", "value": 0.080}, {"measurement": "T-test value GLU", "setting": "LEWxF344 rats", "value": 0.455}, {"measurement": "T-test value K", "setting": "LEWxF344 rats", "value": 0.216}, {"measurement": "T-test value NA", "setting": "LEWxF344 rats", "value": 0.227}, {"measurement": "T-test value PHOS", "setting": "LEWxF344 rats", "value": 0.652}, {"measurement": "T-test value TBIL", "setting": "LEWxF344 rats", "value": 0.560}, {"measurement": "T-test value TP", "setting": "LEWxF344 rats", "value": 1.000}, {"measurement": "T-test value TRIG", "setting": "LEWxF344 rats", "value": 0.129}, {"measurement": "increase in BUN", "setting": "LEW×F344, BN, F344, LEW and LEW×Bn strains, gentamicin treated", "value": "2-3 fold"}, {"measurement": "T-test value ALB", "setting": "[1]", "value": 0.000}, {"measurement": "T-test value ALP", "setting": "[1]", "value": 0.300}, {"measurement": "T-test value ALT", "setting": "[1]", "value": 0.440}, {"measurement": "T-test value ANION GAP", "setting": "[1]", "value": 0.802}, {"measurement": "T-test value AST", "setting": "[1]", "value": 0.026}, {"measurement": "T-test value BICARB", "setting": "[1]", "value": 0.204}, {"measurement": "T-test value BUN", "setting": "[1]", "value": 0.000}, {"measurement": "T-test value CA", "setting": "[1]", "value": 0.004}, {"measurement": "T-test value CHOL", "setting": "[1]", "value": 0.404}, {"measurement": "T-test value CREAT", "setting": "[1]", "value": 0.000}, {"measurement": "T-test value GGT", "setting": "[1]", "value": 0.078}, {"measurement": "T-test value GLOB", "setting": "[1]", "value": 0.024}, {"measurement": "T-test value GLU", "setting": "[1]", "value": 0.497}, {"measurement": "T-test value K", "setting": "[1]", "value": 0.032}, {"measurement": "T-test value NA", "setting": "[1]", "value": 0.064}, {"measurement": "T-test value PHOS", "setting": "[1]", "value": 0.091}, {"measurement": "T-test value TBIL", "setting": "[1]", "value": 0.244}, {"measurement": "T-test value TP", "setting": "[1]", "value": 0.036}, {"measurement": "T-test value TRIG", "setting": "[1]", "value": 0.000}, {"measurement": "T-test value ALB", "setting": "[2]", "value": 0.000}, {"measurement": "T-test value ALP", "setting": "[2]", "value": 0.037}, {"measurement": "T-test value ALT", "setting": "[2]", "value": 0.047}, {"measurement": "T-test value ANION GAP", "setting": "[2]", "value": 0.046}, {"measurement": "T-test value AST", "setting": "[2]", "value": 0.040}, {"measurement": "T-test value BICARB", "setting": "[2]", "value": 0.068}, {"measurement": "T-test value BUN", "setting": "[2]", "value": 0.000}, {"measurement": "T-test value CA", "setting": "[2]", "value": 0.018}, {"measurement": "T-test value CHOL", "setting": "[2]", "value": 0.327}, {"measurement": "T-test value CREAT", "setting": "[2]", "value": 0.000}, {"measurement": "T-test value GGT", "setting": "[2]", "value": 0.083}, {"measurement": "T-test value GLOB", "setting": "[2]", "value": 0.638}, {"measurement": "T-test value GLU", "setting": "[2]", "value": 0.244}, {"measurement": "T-test value K", "setting": "[2]", "value": 0.486}, {"measurement": "T-test value NA", "setting": "[2]", "value": 0.000}, {"measurement": "T-test value PHOS", "setting": "[2]", "value": 0.016}, {"measurement": "T-test value TBIL", "setting": "[2]", "value": 0.141}, {"measurement": "T-test value TP", "setting": "[2]", "value": 0.002}, {"measurement": "T-test value TRIG", "setting": "[2]", "value": 0.000}, {"measurement": "T-test value ALB", "setting": "WKY rats", "value": 0.034}, {"measurement": "T-test value ALP", "setting": "WKY rats", "value": 0.003}, {"measurement": "T-test value ALT", "setting": "WKY rats", "value": 0.346}, {"measurement": "T-test value ANION GAP", "setting": "WKY rats", "value": 0.137}, {"measurement": "T-test value AST", "setting": "WKY rats", "value": 0.244}, {"measurement": "T-test value BICARB", "setting": "WKY rats", "value": 0.229}, {"measurement": "T-test value BUN", "setting": "WKY rats", "value": 0.264}, {"measurement": "T-test value CA", "setting": "WKY rats", "value": 0.969}, {"measurement": "T-test value CHOL", "setting": "WKY rats", "value": 0.232}, {"measurement": "T-test value CREAT", "setting": "WKY rats", "value": 0.156}, {"measurement": "T-test value GLOB", "setting": "WKY rats", "value": 0.358}, {"measurement": "T-test value GLU", "setting": "WKY rats", "value": 0.742}, {"measurement": "T-test value K", "setting": "WKY rats", "value": 0.881}, {"measurement": "T-test value NA", "setting": "WKY rats", "value": 0.134}, {"measurement": "T-test value PHOS", "setting": "WKY rats", "value": 0.014}, {"measurement": "T-test value TBIL", "setting": "WKY rats", "value": 0.052}, {"measurement": "T-test value TP", "setting": "WKY rats", "value": 0.254}, {"measurement": "T-test value TRIG", "setting": "WKY rats", "value": 0.010}, {"measurement": "T-test value ALB", "setting": "WKYxBN rats", "value": 0.080}, {"measurement": "T-test value ALP", "setting": "WKYxBN rats", "value": 0.008}, {"measurement": "T-test value ALT", "setting": "WKYxBN rats", "value": 0.172}, {"measurement": "T-test value ANION GAP", "setting": "WKYxBN rats", "value": 0.887}, {"measurement": "T-test value AST", "setting": "WKYxBN rats", "value": 0.575}, {"measurement": "T-test value BICARB", "setting": "WKYxBN rats", "value": 0.923}, {"measurement": "T-test value BUN", "setting": "WKYxBN rats", "value": 0.016}, {"measurement": "T-test value CA", "setting": "WKYxBN rats", "value": 0.175}, {"measurement": "T-test value CHOL", "setting": "WKYxBN rats", "value": 0.610}, {"measurement": "T-test value CREAT", "setting": "WKYxBN rats", "value": 0.026}, {"measurement": "T-test value GGT", "setting": "WKYxBN rats", "value": 0.189}, {"measurement": "T-test value GLOB", "setting": "WKYxBN rats", "value": 0.361}, {"measurement": "T-test value GLU", "setting": "WKYxBN rats", "value": 1.000}, {"measurement": "T-test value K", "setting": "WKYxBN rats", "value": 0.114}, {"measurement": "T-test value NA", "setting": "WKYxBN rats", "value": 0.401}, {"measurement": "T-test value PHOS", "setting": "WKYxBN rats", "value": 0.118}, {"measurement": "T-test value TBIL", "setting": "WKYxBN rats", "value": 0.020}, {"measurement": "T-test value TP", "setting": "WKYxBN rats", "value": 0.070}, {"measurement": "T-test value TRIG", "setting": "WKYxBN rats", "value": 0.032}, {"measurement": "T-test value ALB", "setting": "WKYxF344 rats", "value": 0.002}, {"measurement": "T-test value ALP", "setting": "WKYxF344 rats", "value": 0.000}, {"measurement": "T-test value ALT", "setting": "WKYxF344 rats", "value": 0.530}, {"measurement": "T-test value ANION GAP", "setting": "WKYxF344 rats", "value": 0.434}, {"measurement": "T-test value AST", "setting": "WKYxF344 rats", "value": 0.596}, {"measurement": "T-test value BICARB", "setting": "WKYxF344 rats", "value": 0.318}, {"measurement": "T-test value BUN", "setting": "WKYxF344 rats", "value": 0.005}, {"measurement": "T-test value CA", "setting": "WKYxF344 rats", "value": 0.135}, {"measurement": "T-test value CHOL", "setting": "WKYxF344 rats", "value": 0.867}, {"measurement": "T-test value CREAT", "setting": "WKYxF344 rats", "value": 0.043}, {"measurement": "T-test value GLOB", "setting": "WKYxF344 rats", "value": 0.104}, {"measurement": "T-test value GLU", "setting": "WKYxF344 rats", "value": 0.375}, {"measurement": "T-test value K", "setting": "WKYxF344 rats", "value": 0.270}, {"measurement": "T-test value NA", "setting": "WKYxF344 rats", "value": 0.128}, {"measurement": "T-test value PHOS", "setting": "WKYxF344 rats", "value": 0.010}, {"measurement": "T-test value TBIL", "setting": "WKYxF344 rats", "value": 0.002}, {"measurement": "T-test value TP", "setting": "WKYxF344 rats", "value": 0.125}, {"measurement": "T-test value TRIG", "setting": "WKYxF344 rats", "value": 0.007}, {"measurement": "T-test value ALB", "setting": "WKYxLEW rats", "value": 0.001}, {"measurement": "T-test value ALP", "setting": "WKYxLEW rats", "value": 0.001}, {"measurement": "T-test value ALT", "setting": "WKYxLEW rats", "value": 0.584}, {"measurement": "T-test value ANION GAP", "setting": "WKYxLEW rats", "value": 0.429}, {"measurement": "T-test value AST", "setting": "WKYxLEW rats", "value": 0.677}, {"measurement": "T-test value BICARB", "setting": "WKYxLEW rats", "value": 0.085}, {"measurement": "T-test value BUN", "setting": "WKYxLEW rats", "value": 0.000}, {"measurement": "T-test value CA", "setting": "WKYxLEW rats", "value": 0.092}, {"measurement": "T-test value CHOL", "setting": "WKYxLEW rats", "value": 0.608}, {"measurement": "T-test value CREAT", "setting": "WKYxLEW rats", "value": 0.000}, {"measurement": "T-test value GLOB", "setting": "WKYxLEW rats", "value": 0.365}, {"measurement": "T-test value GLU", "setting": "WKYxLEW rats", "value": 0.001}, {"measurement": "T-test value K", "setting": "WKYxLEW rats", "value": 0.689}, {"measurement": "T-test value NA", "setting": "WKYxLEW rats", "value": 0.514}, {"measurement": "T-test value PHOS", "setting": "WKYxLEW rats", "value": 0.123}, {"measurement": "T-test value TBIL", "setting": "WKYxLEW rats", "value": 0.685}, {"measurement": "T-test value TP", "setting": "WKYxLEW rats", "value": 0.000}, {"measurement": "T-test value TRIG", "setting": "WKYxLEW rats", "value": 0.015}]}]}
